# Measurements reported in PubChem BioAssay (NCI).
# Values joined by “and” are separate entries in the source; they are usually repeats but may differ in a detail not shown here. Identical values can stand only once.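 Cultured in 96-well plates, cells were exposed to test compound for 48 hours across five concentrations. The concentration for 50% growth inhibition is given as GI50. TGI: total growth inhibition.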
# Columns and labels:
# Assay in all cases: NCI-60 cell line screen, 48 h
# IGROV1 ovarian = test system: IGROV1 ovarian
# HT29 colon = test system: HT29 colon
# SF-295 CNS = test system: SF-295 CNS
# MCF7 breast = test system: MCF7 breast
# OVCAR-5 ovarian = test system: OVCAR-5 ovarian
# SNB-19 CNS = test system: SNB-19 CNS
# SK-OV-3 ovarian = test system: SK-OV-3 ovarian
# NCI-H23 lung = test system: NCI-H23 lung
# CCRF-CEM leukemia = test system: CCRF-CEM leukemia
# OVCAR-3 ovarian = test system: OVCAR-3 ovarian
Structure (SMILES),GI50 (IGROV1 ovarian) [µM],TGI (IGROV1 ovarian) [µM],GI50 (HT29 colon) [µM],TGI (HT29 colon),GI50 (SF-295 CNS) [µM],TGI (SF-295 CNS),GI50 (MCF7 breast) [µM],TGI (MCF7 breast) [µM],GI50 (OVCAR-5 ovarian) [µM],TGI (OVCAR-5 ovarian) [µM],GI50 (SNB-19 CNS) [µM],TGI (SNB-19 CNS),GI50 (SK-OV-3 ovarian) [µM],TGI (SK-OV-3 ovarian),GI50 (NCI-H23 lung) [µM],TGI (NCI-H23 lung),GI50 (CCRF-CEM leukemia) [µM],TGI (CCRF-CEM leukemia),GI50 (OVCAR-3 ovarian) [µM],TGI (OVCAR-3 ovarian)
C=C1C(=O)O[C@H]2[C@H]1CC/C(COC(=O)C(=O)c1c[nH]c3ccc(Cl)cc13)=C\CC[C@@]1(C)O[C@@H]21,1.63,3.32,0.781,3.01 µM,5.77,18.6 µM,0.779,4.27,2.1,5.17,3.22,10.8 µM,11.6,24.1 µM,1.65,3.31 µM,0.375,10.1 µM,0.52,2.01 µM
O=C(Nc1cc(C(F)(F)F)cc(C(F)(F)F)c1)Nc1ccc(OCc2nnc(-c3ccc(Cl)cc3)o2)c(F)c1,3.75,39.2,2.7,10.3 µM,1.14,6.91 µM,1.79,8.47,2.76,13.7,3.1,25.1 µM,2.69,9.51 µM,1.88,6.26 µM,1.88,11.3 µM,1.08,3.92 µM
Cc1[nH]c(=O)nc(N/N=C/c2ccc(Cl)cc2)c1C(=O)Nc1ccc(Cl)cc1,,> 100,,> 100 µM,,43.4 µM,,> 100,,> 100,,> 15.8 µM,,57.9 µM,,> 93.1 µM,,> 100 µM,,35.6 µM
C=C1[C@@H](O)C[C@H]2C(C)(C)C[C@H](Cl)C[C@]2(C)[C@H]1C[C@H](O)[C@H]1CC(=O)NC1=O,0.0114,0.0853,< 0.0105,0.119 µM,< 0.0123,0.0748 µM,< 0.01,0.106,0.0269,0.395,< 0.01,0.241 µM,0.0135,0.157 µM,0.0193,0.15 µM,< 0.01,,0.0191,0.289 µM
Cc1ccc(S(=O)(=O)NNC(C[N+](=O)[O-])c2ccccc2)cc1 (stereo unspecified),,26.7,,3.99 µM,,49.2 µM,,21.6,,> 100,,30.4 µM,,46.3 µM,,> 100 µM,,> 100 µM,,79.4 µM
CCCC(=O)O[C@]1(C)CC[C@@H]2[C@H]3[C@@H]1[C@@H]1C/C(C)=C\CC[C@](C)(OC(=O)[C@@H]2C)[C@H]3O1,24.3,> 100,32.1,> 100 µM,41.2,> 100 µM,29.1,> 100,38.2,> 100,> 100,> 100 µM,> 100,> 100 µM,,,8.89,26 µM,30.3,> 100 µM
CNC12C3C4C1C1C2C3C41C(=O)N[C@H](C(=O)N(C)[C@H](C[C@@H](OC(C)=O)c1nc(C(=O)N[C@@H](Cc2ccccc2)C[C@H](C)C(=O)OC)cs1)C(C)C)C1CC1 (stereo partly specified),0.172,> 13.4,0.257,1.28 µM,0.343,1.31 µM,0.0405,> 15,2.2,> 15,0.679,> 15 µM,0.714,> 15 µM,0.511,> 15 µM,0.318,3.02 µM,0.0472,0.372 µM
Clc1ccc(-c2nc(C(Cl)Cl)nc3cc(-c4ccccc4)nn23)cc1,2.4,> 50,0.751,> 50 µM,1.45,> 50 µM,1.47,> 50,1.53,> 50,1.49,> 50 µM,1.38,4.75 µM,0.947,2.64 µM,> 50,> 50 µM,0.925,2.01 µM
COc1cccc2c1C(=O)c1c(O)c3c(c(O)c1C2=O)C[C@@](O)(C(C)=O)C[C@@H]3OC1CC(O)C(O)C(C)O1 (stereo partly specified),,,,,,,0.153,> 94.4,,,,8.41 µM and 20.5 µM,,8.99 µM and 42.6 µM,,6.17 µM and 4.32 µM,,1.98 µM and 2.06 µM,,23.6 µM
Cn1ccc2c3c(=O)cc[nH]c3ccc21,> 100,> 100,> 100,> 100 µM,> 100,> 100 µM,> 100,> 100,> 100,> 100,> 100,> 100 µM,80.1,> 100 µM,> 100,> 100 µM,> 100,> 100 µM,> 100,> 100 µM
O=C1C(CO)=C[C@@H](O)[C@H]2O[C@@H]12,,> 100,,> 100 µM,,> 100 µM,,44.9,,> 100,,,,> 100 µM,,> 100 µM,,> 100 µM,,> 100 µM
COc1ccc2c(c1)C(=O)c1c-2n(CCCN=[N+]=[N-])c(=O)c2cc(N)ccc12,> 100,> 100,47.6,> 100 µM,> 100,> 100 µM,> 100,> 100,> 100,> 100,> 100,> 100 µM,> 100,> 100 µM,> 100,> 100 µM,> 100,> 100 µM,> 100,> 100 µM
CCOc1ccc(NC(=O)c2cc3ccccc3cc2O)cc1,74,> 100,> 100,> 100 µM,34.6,> 100 µM,> 100,> 100,> 100,> 100,41.2,> 100 µM,27.8,> 100 µM,45.9,> 100 µM,17.9,41.7 µM,> 100,> 100 µM
O=C(O)c1nnsc1-c1csnn1,,> 100,,> 100 µM,,> 100 µM,,> 100,,> 100,,> 100 µM,,> 100 µM,,> 100 µM,,> 100 µM,,> 100 µM
N=C1N=C(N)S/C1=C\c1ccc2ncccc2c1,> 25,> 25,> 25,> 25 µM,> 25,> 25 µM,> 25,> 25,> 25,> 25,> 25,> 25 µM,> 25,> 25 µM,> 25,> 25 µM,> 25,> 25 µM,> 25,> 25 µM
CC(=O)N1N=C(c2ccc(Nc3nc(Nc4ccc(F)cc4)nc(Nc4ccc(Cl)cc4)n3)cc2)CC1c1ccc(N(C)C)cc1 (stereo unspecified),2.96,15.8,3.58,> 75.9 µM,9.73,37.4 µM,3.94,26.9,14,43.6,6.26,> 56.2 µM,6.82,> 31.2 µM,2.96,16.1 µM,5.23,> 100 µM,9.51,31.7 µM
C[C@@H]1CC[C@@H]2[C@@H]1[C@H](OC(=O)c1ccc3ccccc3c1)[C@]1(C3CCCCC3)C[C@@H](OC(=O)CO)[C@@]2(C)O1,15.6,32.8,4.38,18.3 µM,11.6,25.3 µM,3.44,16.5,14.8,30,14.6,28.8 µM,14.4,29 µM,14.3,33.2 µM,5.36,23.6 µM,12.9,27.1 µM
CCOC(=O)C(O)Cc1cnc2ccccc2n1 (stereo unspecified),,> 100,,> 100 µM,,,,> 100,,> 100,,> 100 µM,,> 100 µM,,> 100 µM,,> 100 µM,,> 100 µM
COc1ccc(C2SCC(=O)N2NC(=O)C(O)c2ccccc2)cc1 (stereo unspecified),> 100,> 100,> 100,> 100 µM,> 100,> 100 µM,> 100,> 100,> 100,> 100,> 100,> 100 µM,> 100,> 100 µM,,,> 100,> 100 µM,> 100,> 100 µM
N#CSCC1CC(O)(c2ccccc2)CC(c2ccc(Cl)cc2)O1 (stereo unspecified),2.75,7.72,3.44,8.74 µM,3.28,12.7 µM,1.84,4.92,12.8,26,6.9,19.7 µM,14.3,27.5 µM,2.41,6.53 µM,2.55,11.2 µM,1.72,3.14 µM
Clc1ccc(N/N=C(\c2ccccc2)c2ccccn2)nc1,0.139,,0.0364,> 37.2 µM and 10.8 µM,0.506,> 53.6 µM and 17.7 µM,0.0302,> 100,0.234,> 100,0.466,> 100 µM,,> 100 µM,0.279,> 77.9 µM and 12.9 µM,0.0454,,0.0379,11.2 µM and > 28.6 µM
CCCC(CCC)Oc1ccc(CCCC2=C(O)c3ccccc3C(=O)C2=O)cc1,4.93,18.5,6.2,17.9 µM,2.1,10.4 µM,4.32,15.2,11.8,25.8,,,12.6,28.3 µM,5.94,21.1 µM,2.9,17.1 µM,4.33,15 µM
COc1ccccc1Nc1nc2ccccc2c2occc12,14,39.5,,,20.1,> 50 µM,15.9,> 50,19.4,39.2,14.5,> 50 µM,16.1,> 50 µM,16.3,35.9 µM,27.9,> 50 µM,20.2,> 50 µM
Cc1cc(S(=O)(=O)Nc2nc3ccccc3[nH]2)c(SCc2ccccc2)cc1Cl,82,> 100,,,21.3,> 100 µM,> 100,> 100,> 100,> 100,36,> 100 µM,70.3,> 100 µM,54.9,> 100 µM,12.3,24.8 µM,14.2,58.4 µM
CC(=O)Oc1ccccc1C(=O)NCCC[Se]C#N,2.24,11.2,3.51,11.2 µM,1.89,3.67 µM,2.32,11.7,2.78,6.91,1.57,2.95 µM,3.33,6.16 µM,2.58,7.57 µM,2.89,21.1 µM,,
COc1ccc(C2CC(c3cccc(OC)c3)=NN2C(=O)c2cc(OC)c(OC)c(OC)c2)cc1 (stereo unspecified),1.49,> 100,0.507,> 100 µM,0.654,> 100 µM,0.367,> 100,> 21.2,> 100,3.16,> 100 µM,3.66,> 100 µM,2.76,> 100 µM,1.84,> 29.6 µM,,
CC(C)C[C@H]1C(=O)N2CCC[C@H]2[C@]2(O)O[C@](NC(=O)[C@@H]3C=C4c5cccc6[nH]c(Br)c(c56)C[C@H]4N(C)C3)(C(C)C)C(=O)N12,,> 100,,> 100 µM,,> 100 µM,,> 100,,> 100,,> 100 µM,,> 100 µM,,,,> 100 µM,,> 100 µM
